Details: Liquid; for viscosity: Concentric cylinders viscometry

CCn1cc[n+](C)c1.COP(=O)([O-])OC [1-ethyl-3-methylimidazolium dimethylphosphate]
101.33 kPa
Details	viscosity [mPa·s]
303.15 K	186
313.15 K	107.5
323.15 K	67.1
333.15 K	44.64
343.15 K	31.27
353.15 K	22.85
363.15 K	17.29
373.15 K	13.47

Details	mass density [kg/m3]
303.15 K, 101.33 kPa, Vibrating tube method	1214.4
312 K, 10000 kPa, Bellows volumetry	1212.6
312 K, 20000 kPa, Bellows volumetry	1216.9
312 K, 30000 kPa, Bellows volumetry	1221
312 K, 40000 kPa, Bellows volumetry	1224.9
312 K, 50000 kPa, Bellows volumetry	1228.8
312 K, 60000 kPa, Bellows volumetry	1232.5
313.15 K, 101.33 kPa, Vibrating tube method	1207.6
323.15 K, 101.33 kPa, Vibrating tube method	1200.9
331.7 K, 10000 kPa, Bellows volumetry	1199.7
331.7 K, 20000 kPa, Bellows volumetry	1204.1
331.7 K, 30000 kPa, Bellows volumetry	1208.5
331.7 K, 40000 kPa, Bellows volumetry	1212.6
331.7 K, 50000 kPa, Bellows volumetry	1216.6
331.7 K, 60000 kPa, Bellows volumetry	1220.4
331.7 K, 70000 kPa, Bellows volumetry	1224.1
331.7 K, 80000 kPa, Bellows volumetry	1227.8
331.7 K, 90000 kPa, Bellows volumetry	1231.3
331.7 K, 100000 kPa, Bellows volumetry	1234.7
331.7 K, 110000 kPa, Bellows volumetry	1238.1
331.7 K, 120000 kPa, Bellows volumetry	1241.3
331.7 K, 130000 kPa, Bellows volumetry	1244.5
331.7 K, 140000 kPa, Bellows volumetry	1247.6
331.7 K, 150000 kPa, Bellows volumetry	1250.8
331.7 K, 160000 kPa, Bellows volumetry	1253.7
331.7 K, 170000 kPa, Bellows volumetry	1256.7
331.7 K, 180000 kPa, Bellows volumetry	1259.5
331.7 K, 190000 kPa, Bellows volumetry	1262.3
331.7 K, 200000 kPa, Bellows volumetry	1265.2
333.15 K, 101.33 kPa, Vibrating tube method	1194.3
343.15 K, 101.33 kPa, Vibrating tube method	1187.6
351.7 K, 10000 kPa, Bellows volumetry	1186.8
351.7 K, 20000 kPa, Bellows volumetry	1191.5
351.7 K, 30000 kPa, Bellows volumetry	1196
351.7 K, 40000 kPa, Bellows volumetry	1200.3
351.7 K, 50000 kPa, Bellows volumetry	1204.5
351.7 K, 60000 kPa, Bellows volumetry	1208.5
351.7 K, 70000 kPa, Bellows volumetry	1212.4
351.7 K, 80000 kPa, Bellows volumetry	1216.2
351.7 K, 90000 kPa, Bellows volumetry	1219.8
351.7 K, 100000 kPa, Bellows volumetry	1223.3
351.7 K, 110000 kPa, Bellows volumetry	1226.9
351.7 K, 120000 kPa, Bellows volumetry	1230.4
351.7 K, 130000 kPa, Bellows volumetry	1233.6
351.7 K, 140000 kPa, Bellows volumetry	1236.9
351.7 K, 150000 kPa, Bellows volumetry	1240
351.7 K, 160000 kPa, Bellows volumetry	1243.2
351.7 K, 170000 kPa, Bellows volumetry	1246.2
351.7 K, 180000 kPa, Bellows volumetry	1249.1
351.7 K, 190000 kPa, Bellows volumetry	1252
351.7 K, 200000 kPa, Bellows volumetry	1255
353.15 K, 101.33 kPa, Vibrating tube method	1181.1
363.15 K, 101.33 kPa, Vibrating tube method	1174.5
372.4 K, 10000 kPa, Bellows volumetry	1174.1
372.4 K, 20000 kPa, Bellows volumetry	1179
372.4 K, 30000 kPa, Bellows volumetry	1182.8
372.4 K, 40000 kPa, Bellows volumetry	1188.3
372.4 K, 50000 kPa, Bellows volumetry	1192.6
372.4 K, 60000 kPa, Bellows volumetry	1196.9
372.4 K, 70000 kPa, Bellows volumetry	1200.9
372.4 K, 80000 kPa, Bellows volumetry	1204.9
372.4 K, 90000 kPa, Bellows volumetry	1208.7
372.4 K, 100000 kPa, Bellows volumetry	1212.4
372.4 K, 110000 kPa, Bellows volumetry	1216
372.4 K, 120000 kPa, Bellows volumetry	1219.5
372.4 K, 130000 kPa, Bellows volumetry	1223
372.4 K, 140000 kPa, Bellows volumetry	1226.3
372.4 K, 150000 kPa, Bellows volumetry	1229.6
372.4 K, 160000 kPa, Bellows volumetry	1232.8
372.4 K, 170000 kPa, Bellows volumetry	1235.9
372.4 K, 180000 kPa, Bellows volumetry	1238.9
372.4 K, 190000 kPa, Bellows volumetry	1242
372.4 K, 200000 kPa, Bellows volumetry	1244.9
373.15 K, 101.33 kPa, Vibrating tube method	1168.1
391.9 K, 10000 kPa, Bellows volumetry	1161.7
391.9 K, 20000 kPa, Bellows volumetry	1166.8
391.9 K, 30000 kPa, Bellows volumetry	1171.8
391.9 K, 40000 kPa, Bellows volumetry	1176.6
391.9 K, 50000 kPa, Bellows volumetry	1181.2
391.9 K, 60000 kPa, Bellows volumetry	1185.6
391.9 K, 70000 kPa, Bellows volumetry	1189.9
391.9 K, 80000 kPa, Bellows volumetry	1194
391.9 K, 90000 kPa, Bellows volumetry	1198
391.9 K, 100000 kPa, Bellows volumetry	1201.8
391.9 K, 110000 kPa, Bellows volumetry	1205.6
391.9 K, 120000 kPa, Bellows volumetry	1209.1
391.9 K, 130000 kPa, Bellows volumetry	1212.7
391.9 K, 140000 kPa, Bellows volumetry	1216.1
391.9 K, 150000 kPa, Bellows volumetry	1219.5
391.9 K, 160000 kPa, Bellows volumetry	1222.8
391.9 K, 170000 kPa, Bellows volumetry	1226
391.9 K, 180000 kPa, Bellows volumetry	1229.1
391.9 K, 190000 kPa, Bellows volumetry	1232.2
391.9 K, 200000 kPa, Bellows volumetry	1235.3

CCCCn1cc[n+](C)c1.COP(=O)([O-])OC [1-butyl-3-methyl-1H-imidazolium dimethylphosphate]
101.33 kPa
Details	viscosity [mPa·s]
293.15 K	760.4
303.15 K	369.3
313.15 K	198.8
323.15 K	116.4
333.15 K	72.97
343.15 K	48.45
353.15 K	33.76
363.15 K	24.48
373.15 K	18.37

Details	mass density [kg/m3]
293.15 K, 101.33 kPa, Vibrating tube method	1167.3
303.15 K, 101.33 kPa, Vibrating tube method	1160.2
311.4 K, 10000 kPa, Bellows volumetry	1159.3
311.4 K, 20000 kPa, Bellows volumetry	1163.7
311.4 K, 30000 kPa, Bellows volumetry	1168.1
311.4 K, 40000 kPa, Bellows volumetry	1172.2
311.4 K, 50000 kPa, Bellows volumetry	1176.4
311.4 K, 60000 kPa, Bellows volumetry	1180.3
311.4 K, 70000 kPa, Bellows volumetry	1183.9
311.4 K, 80000 kPa, Bellows volumetry	1187.7
311.4 K, 90000 kPa, Bellows volumetry	1191.3
311.4 K, 100000 kPa, Bellows volumetry	1194.7
311.4 K, 110000 kPa, Bellows volumetry	1198.1
311.4 K, 120000 kPa, Bellows volumetry	1201.4
311.4 K, 130000 kPa, Bellows volumetry	1204.7
311.4 K, 140000 kPa, Bellows volumetry	1207.7
311.4 K, 150000 kPa, Bellows volumetry	1210.8
311.4 K, 160000 kPa, Bellows volumetry	1213.7
311.4 K, 170000 kPa, Bellows volumetry	1216.7
311.4 K, 180000 kPa, Bellows volumetry	1219.6
311.4 K, 190000 kPa, Bellows volumetry	1222.5
311.4 K, 200000 kPa, Bellows volumetry	1225.3
313.15 K, 101.33 kPa, Vibrating tube method	1153.4
323.15 K, 101.33 kPa, Vibrating tube method	1146.8
331.3 K, 10000 kPa, Bellows volumetry	1146.1
331.3 K, 20000 kPa, Bellows volumetry	1150.8
331.3 K, 30000 kPa, Bellows volumetry	1155.4
331.3 K, 40000 kPa, Bellows volumetry	1159.8
331.3 K, 50000 kPa, Bellows volumetry	1164.2
331.3 K, 60000 kPa, Bellows volumetry	1168.3
331.3 K, 70000 kPa, Bellows volumetry	1172.1
331.3 K, 80000 kPa, Bellows volumetry	1176
331.3 K, 90000 kPa, Bellows volumetry	1179.6
331.3 K, 100000 kPa, Bellows volumetry	1183.1
331.3 K, 110000 kPa, Bellows volumetry	1186.6
331.3 K, 120000 kPa, Bellows volumetry	1190.1
331.3 K, 130000 kPa, Bellows volumetry	1193.4
331.3 K, 140000 kPa, Bellows volumetry	1196.6
331.3 K, 150000 kPa, Bellows volumetry	1199.8
331.3 K, 160000 kPa, Bellows volumetry	1202.9
331.3 K, 170000 kPa, Bellows volumetry	1205.9
331.3 K, 180000 kPa, Bellows volumetry	1208.9
331.3 K, 190000 kPa, Bellows volumetry	1212.6
331.3 K, 200000 kPa, Bellows volumetry	1214.8
333.15 K, 101.33 kPa, Vibrating tube method	1140.3
343.15 K, 101.33 kPa, Vibrating tube method	1133.7
351.6 K, 10000 kPa, Bellows volumetry	1133.7
351.6 K, 20000 kPa, Bellows volumetry	1138.4
351.6 K, 30000 kPa, Bellows volumetry	1143.3
351.6 K, 40000 kPa, Bellows volumetry	1147.9
351.6 K, 50000 kPa, Bellows volumetry	1152.4
351.6 K, 60000 kPa, Bellows volumetry	1156.7
351.6 K, 70000 kPa, Bellows volumetry	1160.9
351.6 K, 80000 kPa, Bellows volumetry	1164.9
351.6 K, 90000 kPa, Bellows volumetry	1168.6
351.6 K, 100000 kPa, Bellows volumetry	1172.3
351.6 K, 110000 kPa, Bellows volumetry	1175.9
351.6 K, 120000 kPa, Bellows volumetry	1179.7
351.6 K, 130000 kPa, Bellows volumetry	1183.1
351.6 K, 140000 kPa, Bellows volumetry	1186.4
351.6 K, 150000 kPa, Bellows volumetry	1189.6
351.6 K, 160000 kPa, Bellows volumetry	1192.8
351.6 K, 170000 kPa, Bellows volumetry	1196.1
351.6 K, 180000 kPa, Bellows volumetry	1199.1
351.6 K, 190000 kPa, Bellows volumetry	1202.1
351.6 K, 200000 kPa, Bellows volumetry	1205.1
353.15 K, 101.33 kPa, Vibrating tube method	1127.2
363.15 K, 101.33 kPa, Vibrating tube method	1120.7
371.6 K, 10000 kPa, Bellows volumetry	1120.8
371.6 K, 20000 kPa, Bellows volumetry	1126.1
371.6 K, 30000 kPa, Bellows volumetry	1131.3
371.6 K, 40000 kPa, Bellows volumetry	1136.2
371.6 K, 50000 kPa, Bellows volumetry	1140.9
371.6 K, 60000 kPa, Bellows volumetry	1145.4
371.6 K, 70000 kPa, Bellows volumetry	1149.7
371.6 K, 80000 kPa, Bellows volumetry	1153.9
371.6 K, 90000 kPa, Bellows volumetry	1157.9
371.6 K, 100000 kPa, Bellows volumetry	1161.8
371.6 K, 110000 kPa, Bellows volumetry	1165.7
371.6 K, 120000 kPa, Bellows volumetry	1169.4
371.6 K, 130000 kPa, Bellows volumetry	1173.1
371.6 K, 140000 kPa, Bellows volumetry	1176.4
371.6 K, 150000 kPa, Bellows volumetry	1179.7
371.6 K, 160000 kPa, Bellows volumetry	1183
371.6 K, 170000 kPa, Bellows volumetry	1186.3
371.6 K, 180000 kPa, Bellows volumetry	1189.4
371.6 K, 190000 kPa, Bellows volumetry	1192.5
371.6 K, 200000 kPa, Bellows volumetry	1195.6
373.15 K, 101.33 kPa, Vibrating tube method	1114.2

Source: the NIST ThermoML archive (doi:10.1016/j.jct.2016.09.013)
